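Method: 48-hour compound exposure of cells in 96-well plates, five concentrations, linear interpolation of endpoints. GI50: concentration for 50% inhibition of growth. TGI: concentration producing complete growth inhibition.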
How the values were obtained:
Experiment in all cases: NCI tumour cell line growth inhibition, 48 h
OVCAR-8 ovarian = test system: OVCAR-8 ovarian
HL-60(TB) leukemia = test system: HL-60(TB) leukemia
T-47D breast = test system: T-47D breast
SK-OV-3 ovarian = test system: SK-OV-3 ovarian
LOX IMVI melanoma = test system: LOX IMVI melanoma
SK-MEL-28 melanoma = test system: SK-MEL-28 melanoma
KM12 colon = test system: KM12 colon
OVCAR-4 ovarian = test system: OVCAR-4 ovarian
MDA-MB-231 breast = test system: MDA-MB-231 breast
HS 578T breast = test system: HS 578T breast
UACC-62 melanoma = test system: UACC-62 melanoma
COLO 205 colon = test system: COLO 205 colon
MCF7 breast = test system: MCF7 breast
M14 melanoma = test system: M14 melanoma
ACHN renal = test system: ACHN renal
CAKI-1 renal = test system: CAKI-1 renal
U251 CNS = test system: U251 CNS
SF-539 CNS = test system: SF-539 CNS
HCT-116 colon = test system: HCT-116 colon
SK-MEL-2 melanoma = test system: SK-MEL-2 melanoma
DU-145 prostate = test system: DU-145 prostate
RPMI-8226 leukemia = test system: RPMI-8226 leukemia
HCT-15 colon = test system: HCT-15 colon
UO-31 renal = test system: UO-31 renal
A498 renal = test system: A498 renal
786-0 renal = test system: 786-0 renal
NCI-H23 lung = test system: NCI-H23 lung
HOP-92 NSCLC = test system: HOP-92 NSCLC
UACC-257 melanoma = test system: UACC-257 melanoma
BT-549 breast = test system: BT-549 breast
SNB-75 CNS = test system: SNB-75 CNS
MALME-3M melanoma = test system: MALME-3M melanoma
NCI-H522 lung = test system: NCI-H522 lung
SNB-19 CNS = test system: SNB-19 CNS
SK-MEL-5 melanoma = test system: SK-MEL-5 melanoma
TK-10 renal = test system: TK-10 renal
SF-295 CNS = test system: SF-295 CNS
HCC-2998 colon = test system: HCC-2998 colon
A549 NSCLC = test system: A549 NSCLC
SN12C renal = test system: SN12C renal
OVCAR-5 ovarian = test system: OVCAR-5 ovarian
IGROV1 ovarian = test system: IGROV1 ovarian
SW-620 colon = test system: SW-620 colon
NCI-H460 lung = test system: NCI-H460 lung
SR leukemia = test system: SR leukemia
OVCAR-3 ovarian = test system: OVCAR-3 ovarian
SF-268 CNS = test system: SF-268 CNS
MDA-MB-435 = test system: MDA-MB-435
K-562 leukemia = test system: K-562 leukemia
NCI/ADR-RES ovarian = test system: NCI/ADR-RES ovarian
CCRF-CEM leukemia = test system: CCRF-CEM leukemia
MOLT-4 leukemia = test system: MOLT-4 leukemia
HOP-62 NSCLC = test system: HOP-62 NSCLC
NCI-H226 lung = test system: NCI-H226 lung
HT29 colon = test system: HT29 colon
PC-3 prostate = test system: PC-3 prostate
EKVX NSCLC = test system: EKVX NSCLC

For `O=C1OCC2=C1C(c1ccccc1)c1cc3c(cc1N2)OCO3` (stereo unspecified), the GI50 (OVCAR-8 ovarian) was 43.7 nM, the TGI (OVCAR-8 ovarian) was over 48200 nM and the GI50 (HL-60(TB) leukemia) was 21.4 nM. The TGI (HL-60(TB) leukemia) was 57.3 nM, the GI50 (T-47D breast) was 5140 nM and the TGI (T-47D breast) was over 100000 nM. The GI50 (SK-OV-3 ovarian) was 30.8 nM, the TGI (SK-OV-3 ovarian) was 1390 nM and the GI50 (LOX IMVI melanoma) was 42 nM. The TGI (LOX IMVI melanoma) was over 100000 nM, the GI50 (SK-MEL-28 melanoma) was 42.8 nM and the TGI (SK-MEL-28 melanoma) was over 100000 nM. For the same compound, the GI50 (KM12 colon) was under 16.7 nM, the GI50 (OVCAR-4 ovarian) was 82.3 nM and the TGI (OVCAR-4 ovarian) was over 48300 nM. It also gave a GI50 (MDA-MB-231 breast) of 46 nM, a TGI (MDA-MB-231 breast) of over 74700 nM and a GI50 (HS 578T breast) of 46.9 nM. The TGI (HS 578T breast) was over 84400 nM, the GI50 (UACC-62 melanoma) was 32.8 nM and the TGI (UACC-62 melanoma) was over 100000 nM. It also gave a GI50 (COLO 205 colon) of 26.1 nM, a TGI (COLO 205 colon) of 70.3 nM and a GI50 (MCF7 breast) of 31.6 nM. The TGI (MCF7 breast) was 17300 nM, the GI50 (M14 melanoma) was 27.6 nM and the TGI (M14 melanoma) was over 100000 nM. It also gave a GI50 (ACHN renal) of 94.6 nM, a TGI (ACHN renal) of 36400 nM and a GI50 (CAKI-1 renal) of 439 nM. The TGI (CAKI-1 renal) was over 62900 nM, the GI50 (U251 CNS) was 40.9 nM and the TGI (U251 CNS) was over 50100 nM. It also gave a GI50 (SF-539 CNS) of 31.8 nM, a TGI (SF-539 CNS) of 9300 nM and a GI50 (HCT-116 colon) of 35.2 nM. The TGI (HCT-116 colon) was over 100000 nM, the GI50 (SK-MEL-2 melanoma) was 494 nM and the TGI (SK-MEL-2 melanoma) was 41700 nM. For the same compound, the GI50 (DU-145 prostate) was 44.3 nM, the TGI (DU-145 prostate) was over 100000 nM and the GI50 (RPMI-8226 leukemia) was 57.1 nM. It also gave a GI50 (HCT-15 colon) of 37.3 nM, a TGI (HCT-15 colon) of over 53100 nM and a GI50 (UO-31 renal) of 332 nM. The TGI (UO-31 renal) was over 100000 nM, the GI50 (A498 renal) was 15.9 nM and the TGI (A498 renal) was 498 nM. The GI50 (786-0 renal) was 55 nM, the TGI (786-0 renal) was over 69300 nM and the GI50 (NCI-H23 lung) was 44.9 nM. The TGI (NCI-H23 lung) was over 100000 nM, the GI50 (HOP-92 NSCLC) was 141 nM and the TGI (HOP-92 NSCLC) was 7630 nM. The GI50 (UACC-257 melanoma) was 4580 nM, the TGI (UACC-257 melanoma) was over 100000 nM and the GI50 (BT-549 breast) was 44.1 nM. The TGI (BT-549 breast) was 4970 nM, the GI50 (SNB-75 CNS) was 20.1 nM and the TGI (SNB-75 CNS) was 1160 nM. It also gave a GI50 (MALME-3M melanoma) of 14100 nM, a TGI (MALME-3M melanoma) of over 100000 nM and a GI50 (NCI-H522 lung) of under 11 nM. It also gave a TGI (NCI-H522 lung) of 1560 nM, a GI50 (SNB-19 CNS) of 56.8 nM and a TGI (SNB-19 CNS) of over 100000 nM. The GI50 (SK-MEL-5 melanoma) was 33.6 nM, the TGI (SK-MEL-5 melanoma) was 234 nM and the GI50 (TK-10 renal) was 11400 nM. The TGI (TK-10 renal) was over 100000 nM, the GI50 (SF-295 CNS) was 16.9 nM and the GI50 (HCC-2998 colon) was 33.3 nM. The TGI (HCC-2998 colon) was over 38700 nM, the GI50 (A549 NSCLC) was 37.5 nM and the TGI (A549 NSCLC) was over 56400 nM. The GI50 (SN12C renal) was 55.7 nM, the TGI (SN12C renal) was over 65000 nM and the GI50 (OVCAR-5 ovarian) was 82.9 nM. For the same compound, the TGI (OVCAR-5 ovarian) was over 100000 nM, the GI50 (IGROV1 ovarian) was 81.6 nM and the TGI (IGROV1 ovarian) was 50200 nM. For the same compound, the GI50 (SW-620 colon) was 37 nM, the TGI (SW-620 colon) was over 100000 nM and the GI50 (NCI-H460 lung) was 35.4 nM. For the same compound, the GI50 (SR leukemia) was under 11.5 nM, the GI50 (OVCAR-3 ovarian) was 20.2 nM and the TGI (OVCAR-3 ovarian) was 48.6 nM. For the same compound, the GI50 (SF-268 CNS) was 65.4 nM, the TGI (SF-268 CNS) was over 43400 nM and the TGI (MDA-MB-435) was 26 nM. It also gave a TGI (K-562 leukemia) of 32700 nM, a GI50 (NCI/ADR-RES ovarian) of 20.4 nM and a TGI (NCI/ADR-RES ovarian) of 1620 nM. The GI50 (CCRF-CEM leukemia) was 39 nM, the TGI (CCRF-CEM leukemia) was over 100000 nM and the GI50 (MOLT-4 leukemia) was 36 nM. It also gave a GI50 (HOP-62 NSCLC) of 46.2 nM, a TGI (HOP-62 NSCLC) of 33400 nM and a GI50 (NCI-H226 lung) of 24.5 nM. It also gave a TGI (NCI-H226 lung) of 74.2 nM, a GI50 (HT29 colon) of 35.1 nM and a TGI (HT29 colon) of over 59000 nM. For the same compound, the GI50 (PC-3 prostate) was 40.4 nM, the TGI (PC-3 prostate) was over 100000 nM and the GI50 (EKVX NSCLC) was 2290 nM. For the same compound, the TGI (EKVX NSCLC) was over 100000 nM.

Source: PubChem BioAssay (NCI)
